Experimental data taken from PMC5120204, “Identification of an orally active small-molecule PTHR1 agonist for the treatment of hypoparathyroidism” (Nature Communications, 2016).

Legend:
hPTHR1 = target: T1, hPTHR1 (Homo sapiens, UniProt Q03431); test: cAMP production assay in COS-7 cells expressing hPTHR1; type: cell-based; settings: COS-7 cells expressing hPTHR1, 20 min
T1 construct: similar to that of cells expressing full-length hPTHR1; expressed in transfected cells; host or cells: COS-7 (transient, FuGENE HD)
T1 sequence (Q03431 27-593 E93Y/D94P/K95Y/E96D/A97V/T99D/G100Y/S101A): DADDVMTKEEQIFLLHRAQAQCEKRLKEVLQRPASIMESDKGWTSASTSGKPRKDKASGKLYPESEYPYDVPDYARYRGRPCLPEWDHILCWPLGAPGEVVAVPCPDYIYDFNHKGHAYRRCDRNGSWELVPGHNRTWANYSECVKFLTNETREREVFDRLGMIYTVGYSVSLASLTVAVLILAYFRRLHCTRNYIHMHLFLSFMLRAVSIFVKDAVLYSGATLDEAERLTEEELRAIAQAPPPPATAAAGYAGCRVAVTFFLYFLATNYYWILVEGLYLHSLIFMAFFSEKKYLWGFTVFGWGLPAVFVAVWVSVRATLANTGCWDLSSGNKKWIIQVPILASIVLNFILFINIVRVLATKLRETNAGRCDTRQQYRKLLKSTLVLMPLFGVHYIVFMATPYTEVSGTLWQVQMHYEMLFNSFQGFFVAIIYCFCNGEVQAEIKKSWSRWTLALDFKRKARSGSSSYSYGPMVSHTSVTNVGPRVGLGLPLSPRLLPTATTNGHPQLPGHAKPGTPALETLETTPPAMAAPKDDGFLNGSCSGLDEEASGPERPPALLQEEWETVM
Procedure: (§1) COS-7 cells (ATCC) were seeded into a 96-well flat-bottomed plate (1.4 × 10^4 cells per 100 μl per well) and incubated overnight. The next day, the COS-7 cells were transfected by adding 10 μl of a mixture of hPTHR1, hPTHR2 or mutant hPTHR1 plasmid, rat PTHR1 or rat PTHR2 plasmid, or empty vector (0.1 μg per well), FuGENE HD Transfection Reagent (0.4 μl per well, Promega), and Opti-MEM I Reduced Serum Medium (10 μl per well, Life Technologies) to each well. […] The plate was placed in a 37 °C constant-temperature water bath for 20 min to allow the reaction to proceed. After incubation, the liquid in the wells was discarded, the wells were washed with the assay medium (100 μl per well), and the plate was frozen on dry ice. Next, 40 μl of 50 mmol l^−1 HCl was added to each well, and the plate was stored in a freezer set at ≤−20 °C. The cAMP concentrations were measured by using a cAMP EIA kit (GE Healthcare). EC50 values were determined from three independent experiments in duplicate by a non-linear regression Emax model (JMP ver.9.0.2, SAS Institute). The geometric mean of the EC50 values obtained in three experiments in duplicate was calculated using Microsoft Office Excel 2007. […]

hPTHR2 = target: T2, hPTHR2 (Homo sapiens, UniProt P49190); test: cAMP production assay in COS-7 cells expressing hPTHR2; type: cell-based; settings: COS-7 cells expressing human PTHR2
T2 construct: expressed in transfected cells; host or cells: COS-7 (transient)
T2 sequence (P49190 25-550): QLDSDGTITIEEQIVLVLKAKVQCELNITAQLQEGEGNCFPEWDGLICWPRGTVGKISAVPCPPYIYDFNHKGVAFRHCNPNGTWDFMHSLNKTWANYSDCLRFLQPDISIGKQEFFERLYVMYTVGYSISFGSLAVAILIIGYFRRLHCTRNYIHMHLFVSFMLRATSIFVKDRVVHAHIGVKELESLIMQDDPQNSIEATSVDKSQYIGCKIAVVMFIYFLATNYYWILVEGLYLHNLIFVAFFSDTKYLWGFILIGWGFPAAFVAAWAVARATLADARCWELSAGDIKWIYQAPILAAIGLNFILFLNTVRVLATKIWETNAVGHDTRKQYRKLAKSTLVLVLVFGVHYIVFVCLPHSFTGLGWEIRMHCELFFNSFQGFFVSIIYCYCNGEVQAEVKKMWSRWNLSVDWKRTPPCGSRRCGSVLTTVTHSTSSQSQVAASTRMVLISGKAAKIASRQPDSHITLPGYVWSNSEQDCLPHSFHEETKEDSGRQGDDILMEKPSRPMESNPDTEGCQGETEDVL
Procedure: as §1

rat PTHR2 = target: T3, rat PTHR2 (Rattus norvegicus, UniProt P70555); test: cAMP production assay in COS-7 cells expressing rat PTHR2; type: cell-based
T3 construct: expressed in transfected cells; host or cells: COS-7 (transient)
T3 sequence (P70555 25-546): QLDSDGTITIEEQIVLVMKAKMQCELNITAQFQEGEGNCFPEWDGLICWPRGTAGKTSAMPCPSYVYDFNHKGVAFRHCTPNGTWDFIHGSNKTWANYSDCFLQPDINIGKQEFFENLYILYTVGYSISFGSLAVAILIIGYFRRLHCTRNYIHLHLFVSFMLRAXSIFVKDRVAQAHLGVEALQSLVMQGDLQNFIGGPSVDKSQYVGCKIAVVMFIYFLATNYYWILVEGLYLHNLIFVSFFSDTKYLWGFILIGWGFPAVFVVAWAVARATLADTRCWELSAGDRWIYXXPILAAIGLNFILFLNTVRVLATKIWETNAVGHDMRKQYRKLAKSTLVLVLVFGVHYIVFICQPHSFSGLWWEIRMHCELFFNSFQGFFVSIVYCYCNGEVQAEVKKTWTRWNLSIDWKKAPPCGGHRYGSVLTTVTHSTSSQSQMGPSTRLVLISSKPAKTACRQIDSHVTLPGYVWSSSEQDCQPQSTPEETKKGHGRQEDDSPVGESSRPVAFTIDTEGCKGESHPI
Procedure: as §1

PTHR1 = target: T4, PTHR1 (Rattus norvegicus, UniProt P25961); test: cAMP washout assay in UMR-106 cells; type: cell-based; settings: washout 0–120 min
T4 construct: UMR-106 cells, which natively express rat PTHR1; endogenous in cells; host or cells: UMR-106 (ATCC)
T4 sequence (P25961 27-591): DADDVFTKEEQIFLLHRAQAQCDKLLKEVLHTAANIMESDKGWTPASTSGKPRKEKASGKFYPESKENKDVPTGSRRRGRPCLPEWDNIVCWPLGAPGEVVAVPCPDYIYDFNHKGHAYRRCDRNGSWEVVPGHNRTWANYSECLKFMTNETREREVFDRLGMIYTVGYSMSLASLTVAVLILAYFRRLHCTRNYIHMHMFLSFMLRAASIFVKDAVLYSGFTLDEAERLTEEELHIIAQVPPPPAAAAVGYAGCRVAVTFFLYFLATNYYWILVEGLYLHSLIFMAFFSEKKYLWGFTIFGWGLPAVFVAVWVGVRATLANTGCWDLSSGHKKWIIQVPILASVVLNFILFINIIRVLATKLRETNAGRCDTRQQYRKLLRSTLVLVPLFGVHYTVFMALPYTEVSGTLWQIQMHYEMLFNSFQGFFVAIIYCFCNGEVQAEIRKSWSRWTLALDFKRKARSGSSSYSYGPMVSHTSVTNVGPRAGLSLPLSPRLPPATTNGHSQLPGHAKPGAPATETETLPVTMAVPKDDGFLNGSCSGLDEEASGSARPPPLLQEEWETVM
Procedure: The duration of cAMP signalling capacity of PCO371, hPTH(1–34) and LA-PTH (synthesized at American Peptide Company, Inc.) was assessed in a time-course experiment in UMR-106 cells (cAMP washout assay). The cells were treated with assay medium (2 mg m l^−1 BSA, and 2 mmol l^−1 HEPES/McCoy's 5A medium, Life Technologies) alone (basal) or with ligands (1 μmol l^−1 for hPTH(1–34), 0.1 μmol l^−1 for LA-PTH and 0.1 mmol l^−1 for PCO371) in the assay medium for 10 min, washed (t=0), incubated for 0, 30, 60 and 120 min (washout phase), and then further incubated for 5 min in the assay medium containing IBMX (2 mmol l^−1). Incubations were terminated with 50 mmol l^−1 HCl. The cAMP concentrations were determined using a cAMP EIA kit (GE Healthcare).

UMR-106 cells = test: Gene expression assay in UMR-106 cells; type: cell-based, rat
Procedure: UMR-106 cells (ATCC) were incubated with DMEM with 0.2% BSA for 4 h and were then treated with hPTH(1–34) or PCO371 for 1 or 6 h. At 1 or 6 h after adding test compounds, total RNA was isolated by using an RNeasy Plus Kit (Qiagen). cDNA was transcribed from the isolated total RNA by using TaqMan Reverse Transcription Reagents (Thermo Fisher Scientific). mRNA levels were quantified by a real-time PCR system (Thermo Fisher Scientific). The relative quantity of transcripts was calculated by using the comparative threshold cycle (Ct) method and normalized to 18S ribosomal RNA as an internal control. The following cDNA-specific primers and probes were used: Fos (encoded by Fos, Rn02396759_m1), osteocalcin (encoded by Bglap, Rn00566386_g1), receptor activator of nuclear factor-κB ligand (RANKL, encoded by Tnfsf11, Rn00589289_m1), osteoprotegerin (osteoprotegerin, encoded by Tnfrsf11b, Rn00563499_m1) and sclerostin (encoded by Sost, Rn00577971_m1).

## Cc1cc(N2C(=O)NC(=O)C2(C)C)cc(C)c1CCS(=O)(=O)N1CCC2(CC1)N=C(c1ccc(OC(F)(F)F)cc1)NC2=O [PCO371, 1-{3,5-dimethyl-4-[2-({4-oxo-2-[4-(trifluoromethoxy)phenyl]-1,3,8-triazaspiro[4.5]dec-1-en-8-yl}sulfonyl)ethyl]phenyl}-5,5-dimethylimidazolidine-2,4-dione]
hPTHR1
  EC50: 2400 nM
hPTHR2
  cAMP production: did not stimulate cAMP production
Rat PTHR2
  cAMP production: did not stimulate cAMP production
PTHR1
  duration of cAMP-signalling response: much shorter than that of hPTH(1–34)
UMR-106 cells; 1 h (Fos) or 6 h
  expression of mRNAs for Fos, osteocalcin and RANKL: dose-dependently increased
UMR-106 cells; 6 h
  expression of mRNAs for osteoprotegerin and sclerostin: dose-dependently decreased
